{"source": "patent US20160271139A1", "about": "“METHOD FOR NON-TOXIC TREATMENT FOR DRUG WITHDRAWAL” (DEMERX, INC., priority 2013, published 2016)", "assay": "Urine noribogaine and noribogaine glucuronide elimination in healthy volunteers", "type": "in vivo", "settings": "human urine", "data": [{"smiles": "CC[C@H]1C[C@H]2C[C@H]3c4[nH]c5ccc(O)cc5c4CCN(C2)[C@@H]13", "note": "[noribogaine]", "values": [{"measurement": "Total urine noribogaine elimination (sum of noribogaine and noribogaine glucuronide)", "setting": "30 mg dose group", "result": 1.16, "unit": "mg"}, {"measurement": "Total urine noribogaine elimination as share of the dose administered", "setting": "30 mg dose group", "result": 3.9, "unit": "%"}, {"measurement": "Total urine noribogaine elimination (sum of noribogaine and noribogaine glucuronide)", "setting": "60 mg dose group", "result": 0.82, "unit": "mg"}, {"measurement": "Total urine noribogaine elimination as share of the dose administered", "setting": "60 mg dose group", "result": 1.4, "unit": "%"}]}]}
